Reference: patent US12257214B2, “Compositions and methods comprising deoxy-pentitols” (The Charlotte Mecklenburg Hospital Authority, priority 2021, dated 2025)

System: SW620
Assay: ATPlite cell IC50 screening, SW620
Format: cell-based
Conditions: Homo sapiens, SW-620; SW620, Colon adenocarcinoma; ATPlite luminescence
Method: In brief, the cells were cultures in relevant medium and treated with a range of 9 doses of 2-deoxyribitol, from 10 mM, 5 mM, 2.5 mM, 1.25 mM, 0.62 mM, 0.31 mM, 0.08 mM, and 0.04 mM. Cells were diluted in the corresponding ATCC recommended medium and dispensed in a 384-well plate, depending on the cell line used, at a density of 100-6400 cells per well in 45 μl medium. For each used cell line the optimal cell density was used. The margins of the plate were filled with phosphate-buffered saline. Plated cells were incubated in a humidified atmosphere of 5% CO2 at 37° C. After 24 hours, 5 μl of compound dilution was added and plates were further incubated. At the end of experiment (t=end), 24 μl of ATPlite 1Step™ (PerkinElmer) solution was added to each well, and subsequently shaken for 2 minutes. After 10 minutes of incubation in the dark, the luminescence was recorded on an Envision multimode reader (PerkinElmer). IC50 was determined in comparison with the control samples. The cell lines tested and their corresponding disease model is indicated the left-most and middle columns, respectively. IC50 values are given in μM values in the right-most column. This screening was performed of a list of cancer cells to establish IC50 values for each of the cancer cell lines. This screening provides evidence for the potential of 2DR to treat many cancer types.

OCC[C@H](O)[C@H](O)CO [2-deoxyribitol]
IC50: 5.22 mM
